“And” between values parts separate entries of the source, which are not always exact repeats. Equal entries are not always repeated. Toxic doses and inconclusive results are not listed.
Tested on: L1210 leukemia ip in BDF1 mice, survival T/C
Assay: NCI In Vivo Anticancer Drug Screen. Data for tumor model L1210 Leukemia (intraperitoneal) in B6D2F1 (BDF1) mice
Details: higher = longer survival
Procedure, shortened: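 Tumor was transplanted into mice, which were then dosed with test compound or vehicle alone. Survival was recorded for each group, and the treated figure was expressed relative to the control figure.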

[1] = endpoint: mean survival time, dose: 100.0 mg/kg/injection, schedule: Q04DX002 (ip), vehicle: saline with Tween-80
[2] = endpoint: mean survival time, dose: 200.0 mg/kg/injection, schedule: Q04DX002 (ip), vehicle: saline with Tween-80
[3] = endpoint: mean survival time, dose: 400.0 mg/kg/injection, schedule: Q04DX002 (ip), vehicle: saline with Tween-80
[4] = endpoint: mean survival time, dose: 100.0 mg/kg/injection, schedule: Q01DX001 (ip), vehicle: carboxymethylcellulose (CMC)
[5] = endpoint: mean survival time, dose: 200.0 mg/kg/injection, schedule: Q01DX001 (ip), vehicle: carboxymethylcellulose (CMC)
[6] = endpoint: mean survival time, dose: 400.0 mg/kg/injection, schedule: Q01DX001 (ip), vehicle: carboxymethylcellulose (CMC)
[7] = endpoint: mean survival time, dose: 100.0 mg/kg/injection, schedule: Q04DX003 (ip), vehicle: saline with Tween-80
[8] = endpoint: mean survival time, dose: 200.0 mg/kg/injection, schedule: Q04DX003 (ip), vehicle: saline with Tween-80
[9] = endpoint: mean survival time, dose: 400.0 mg/kg/injection, schedule: Q04DX003 (ip), vehicle: saline with Tween-80
[10] = endpoint: mean survival time, dose: 50.0 mg/kg/injection, schedule: Q01DX009 (ip), vehicle: saline with Tween-80
[11] = endpoint: mean survival time, dose: 100.0 mg/kg/injection, schedule: Q01DX009 (ip), vehicle: saline with Tween-80
[12] = endpoint: mean survival time, dose: 200.0 mg/kg/injection, schedule: Q01DX009 (ip), vehicle: saline with Tween-80
[13] = endpoint: mean survival time, dose: 100.0 mg/kg/injection, schedule: Q04DX003 (ip), vehicle: saline
[14] = endpoint: mean survival time, dose: 200.0 mg/kg/injection, schedule: Q04DX003 (ip), vehicle: saline
[15] = endpoint: mean survival time, dose: 400.0 mg/kg/injection, schedule: Q04DX003 (ip), vehicle: saline
[16] = endpoint: mean survival time, dose: 100.0 mg/kg/injection, schedule: Q01DX009 (ip), vehicle: saline
[17] = endpoint: mean survival time, dose: 200.0 mg/kg/injection, schedule: Q01DX009 (ip), vehicle: saline
[18] = endpoint: mean survival time, dose: 400.0 mg/kg/injection, schedule: Q01DX009 (ip), vehicle: saline
[19] = endpoint: mean survival time, dose: 400.0 mg/kg/injection, schedule: Q01DX009 (ip), vehicle: saline with Tween-80
[20] = endpoint: mean survival time, dose: 75.0 mg/kg/injection, schedule: Q01DX001 (ip), vehicle: saline
[21] = endpoint: mean survival time, dose: 150.0 mg/kg/injection, schedule: Q01DX001 (ip), vehicle: saline
[22] = endpoint: mean survival time, dose: 300.0 mg/kg/injection, schedule: Q01DX001 (ip), vehicle: saline
[23] = endpoint: mean survival time, dose: 100.0 mg/kg/injection, schedule: Q01DX009 (ip), vehicle: Klucel (hydroxypropylcellulose) (HPC)
[24] = endpoint: mean survival time, dose: 200.0 mg/kg/injection, schedule: Q01DX009 (ip), vehicle: Klucel (hydroxypropylcellulose) (HPC)
[25] = endpoint: mean survival time, dose: 400.0 mg/kg/injection, schedule: Q01DX009 (ip), vehicle: Klucel (hydroxypropylcellulose) (HPC)

O=C(/C=C/c1ccccc1)CC(=O)c1ccccc1.O=C(/C=C/c1ccccc1)CC(=O)c1ccccc1.[Cu]
T/C (endpoint: mean survival time, dose: 50.0 mg/kg/injection, schedule: Q01DX001 (ip), vehicle: saline): 94 % of control | T/C (endpoint: mean survival time, dose: 100.0 mg/kg/injection, schedule: Q01DX001 (ip), vehicle: saline): 91 % of control | T/C (endpoint: mean survival time, dose: 200.0 mg/kg/injection, schedule: Q01DX001 (ip), vehicle: saline): 91 % of control | T/C (endpoint: mean survival time, dose: 400.0 mg/kg/injection, schedule: Q01DX001 (ip), vehicle: saline): 97 % of control

O=P(O)(Nc1ccccc1)Nc1ccccc1
T/C [1]: 113 % of control | T/C [2]: 103 % of control | T/C [3]: 113 % of control

CC1([N+](=O)[O-])COP(=O)(NCc2ccccn2)OC1 (stereo not given)
T/C (endpoint: mean survival time, dose: 50.0 mg/kg/injection, schedule: Q01DX001 (ip), vehicle: carboxymethylcellulose (CMC)): 107 % of control | T/C [4]: 103 % of control | T/C [5]: 97 % of control | T/C [6]: 103 % of control

CC(=N)c1c(O)cc(C)oc1=O
T/C [7]: 108 % of control | T/C [8]: 101 % of control | T/C [9]: 92 % of control

O=Cc1cc([N+](=O)[O-])ccc1Cl
T/C [10]: 101 % of control | T/C [11]: 100 % of control | T/C [7]: 96 % of control | T/C [12]: 95 % of control | T/C [8]: 97 % of control

Cc1ccc2nc(-c3ccc(F)cc3)cc(C(=O)O)c2c1
T/C [13]: 92 % of control | T/C [14]: 89 % of control | T/C [15]: 95 % of control

O=S(OCc1ccccc1)OCc1ccccc1
T/C [16]: 98 % of control | T/C [17]: 104 % of control | T/C [18]: 91 % of control

O=[P+](O)c1ccccc1
T/C [16]: 94 % of control | T/C [13]: 103 % of control | T/C [17]: 100 % of control | T/C [14]: 98 % of control | T/C [18]: 100 % of control | T/C [15]: 101 % of control

CSc1ccc(OC(=O)Nc2ccccc2F)cc1
T/C [10]: 108 % of control | T/C [11]: 103 % of control

CC(=O)Nc1ccc(NC(=O)c2ccccc2Cl)cc1
T/C [11]: 93 % of control and 102 % of control | T/C [1]: 105 % of control and 90 % of control | T/C [7]: 98 % of control | T/C [12]: 96 % of control and 97 % of control | T/C [2]: 90 % of control and 91 % of control | T/C [8]: 95 % of control | T/C [19]: 117 % of control and 91 % of control | T/C [3]: 101 % of control and 110 % of control | T/C [9]: 98 % of control

CN1N(C(O)C(Cl)(Cl)Cl)C12CCCCC2 (stereo not given)
T/C [5]: 101 % of control | T/C [6]: 98 % of control

CC1CC(C)(C)C(C[NH-])C1[NH-].[Cl][Pt+2][Cl] (stereo not given)
T/C (endpoint: median survival time, dose: 7.5 mg/kg/injection, schedule: Q01DX009 (ip), vehicle: saline): 189 % of control | T/C (endpoint: median survival time, dose: 15.0 mg/kg/injection, schedule: Q01DX001 (ip), vehicle: saline): 173 % of control | T/C (endpoint: median survival time, dose: 15.0 mg/kg/injection, schedule: Q01DX009 (ip), vehicle: saline): 205 % of control | T/C (endpoint: median survival time, dose: 30.0 mg/kg/injection, schedule: Q01DX001 (ip), vehicle: saline): 189 % of control | T/C (endpoint: median survival time, dose: 30.0 mg/kg/injection, schedule: Q01DX009 (ip), vehicle: saline): 105 % of control | T/C (endpoint: median survival time, dose: 60.0 mg/kg/injection, schedule: Q01DX001 (ip), vehicle: saline): 154 % of control | T/C (endpoint: median survival time, dose: 60.0 mg/kg/injection, schedule: Q01DX009 (ip), vehicle: saline): 87 % of control | T/C (endpoint: median survival time, dose: 120.0 mg/kg/injection, schedule: Q01DX001 (ip), vehicle: saline): 209 % of control

O=C(NC(=S)Nc1ccc(O)cc1)c1cccc([N+](=O)[O-])c1
T/C (endpoint: mean survival time, dose: 100.0 mg/kg/injection, schedule: Q01DX001 (ip), vehicle: saline with Tween-80): 87 % of control | T/C [11]: 99 % of control and 103 % of control | T/C [1]: 101 % of control | T/C [7]: 94 % of control | T/C (endpoint: mean survival time, dose: 200.0 mg/kg/injection, schedule: Q01DX001 (ip), vehicle: saline with Tween-80): 91 % of control | T/C [12]: 92 % of control and 100 % of control | T/C [2]: 97 % of control | T/C [8]: 96 % of control | T/C (endpoint: mean survival time, dose: 400.0 mg/kg/injection, schedule: Q01DX001 (ip), vehicle: saline with Tween-80): 101 % of control | T/C [19]: 92 % of control and 100 % of control | T/C [3]: 90 % of control | T/C [9]: 95 % of control

COc1ccc(Cc2ccc(O)cc2)cc1
T/C (endpoint: mean survival time, dose: 100.0 mg/kg/injection, schedule: Q04DX003 (ip), vehicle: other): 90 % of control | T/C (endpoint: mean survival time, dose: 200.0 mg/kg/injection, schedule: Q04DX003 (ip), vehicle: other): 93 % of control | T/C (endpoint: mean survival time, dose: 400.0 mg/kg/injection, schedule: Q04DX003 (ip), vehicle: other): 98 % of control

CCCCC1C(=O)N2c3ccccc3-c3ccccc3N2C1=O
T/C [20]: 99 % of control | T/C [21]: 96 % of control | T/C [22]: 101 % of control

CC(=O)N(CC(=O)OCc1ccccc1)C(C)=O
T/C [16]: 110 % of control | T/C [17]: 103 % of control | T/C [18]: 105 % of control

CCC[As](=O)(O)Cc1ccccc1C
T/C (endpoint: mean survival time, dose: 0.78 mg/kg/injection, schedule: Q01DX009 (ip), vehicle: saline with Tween-80): 95 % of control | T/C (endpoint: mean survival time, dose: 1.56 mg/kg/injection, schedule: Q01DX009 (ip), vehicle: saline with Tween-80): 97 % of control | T/C (endpoint: mean survival time, dose: 1.56 mg/kg/injection, schedule: Q04DX003 (ip), vehicle: saline with Tween-80): 93 % of control | T/C (endpoint: mean survival time, dose: 3.12 mg/kg/injection, schedule: Q01DX009 (ip), vehicle: saline with Tween-80): 97 % of control | T/C (endpoint: mean survival time, dose: 3.12 mg/kg/injection, schedule: Q04DX002 (ip), vehicle: saline with Tween-80): 103 % of control | T/C (endpoint: mean survival time, dose: 3.12 mg/kg/injection, schedule: Q04DX003 (ip), vehicle: saline with Tween-80): 97 % of control | T/C (endpoint: mean survival time, dose: 6.25 mg/kg/injection, schedule: Q01DX001 (ip), vehicle: saline with Tween-80): 106 % of control | T/C (endpoint: mean survival time, dose: 6.25 mg/kg/injection, schedule: Q01DX009 (ip), vehicle: saline with Tween-80): 101 % of control and 103 % of control | T/C (endpoint: mean survival time, dose: 6.25 mg/kg/injection, schedule: Q04DX003 (ip), vehicle: saline with Tween-80): 95 % of control | T/C (endpoint: mean survival time, dose: 12.5 mg/kg/injection, schedule: Q01DX001 (ip), vehicle: saline with Tween-80): 109 % of control | T/C (endpoint: mean survival time, dose: 12.5 mg/kg/injection, schedule: Q04DX002 (ip), vehicle: saline with Tween-80): 90 % of control | T/C (endpoint: mean survival time, dose: 12.5 mg/kg/injection, schedule: Q04DX003 (ip), vehicle: saline with Tween-80): 103 % of control

CCSCCCCO
T/C [20]: 101 % of control | T/C (endpoint: mean survival time, dose: 75.0 mg/kg/injection, schedule: Q01DX009 (ip), vehicle: saline): 102 % of control | T/C [21]: 101 % of control | T/C (endpoint: mean survival time, dose: 150.0 mg/kg/injection, schedule: Q01DX009 (ip), vehicle: saline): 100 % of control | T/C [22]: 97 % of control

CC(=O)Nc1ccccc1Cl
T/C [23]: 100 % of control | T/C [24]: 105 % of control | T/C [25]: 108 % of control

CC(C)(C)/C=N/Nc1ccc([N+](=O)[O-])cc1[N+](=O)[O-]
T/C [23]: 108 % of control | T/C [24]: 106 % of control | T/C [25]: 102 % of control

Cc1ccc(/C(=C/c2ccc([N+](=O)[O-])cc2)C(=O)O)cc1
T/C (endpoint: mean survival time, dose: 100.0 mg/kg/injection, schedule: Q04DX003 (ip), vehicle: Klucel (hydroxypropylcellulose) (HPC)): 102 % of control | T/C (endpoint: mean survival time, dose: 200.0 mg/kg/injection, schedule: Q04DX003 (ip), vehicle: Klucel (hydroxypropylcellulose) (HPC)): 98 % of control | T/C (endpoint: mean survival time, dose: 400.0 mg/kg/injection, schedule: Q04DX003 (ip), vehicle: Klucel (hydroxypropylcellulose) (HPC)): 95 % of control

COc1ccc(NC(=O)C(Cl)Cl)cc1NC(C)=O
T/C [4]: 96 % of control | T/C [5]: 108 % of control | T/C [6]: 91 % of control
